Reference: patent US20100210558A1, “MINIGASTRIN AS A THERAPEUTIC AGENT” (priority 2007, published 2010)
Where no end group is shown, it is not given here.

Tested on: drug-resistant Mycobacterium tuberculosis
Settings: 5 micrograms per ml

## LEEEEEAYGWMDF-NH2 [Minigastrin I]
  % inhibition: 0.0%
